Measurements reported in patent US10206400B2, “Insecticidal compounds based on isoxazoline derivatives” (Syngenta Crop Protection LLC, priority 2009, dated 2019).

Tests used:
Type in all cases: in vivo
Spodoptera littoralis = Spodoptera littoralis (Egyptian cotton leafworm) leaf disc spray test; settings: foliar, 72 h, 200 ppm spray on cotton leaf discs, L1 larvae, mortality, feeding behavior, growth regulation 3 days after treatment
Excerpt: Cotton leaf discs were placed on agar in a 24-well microtiter plate and sprayed with test solutions at an application rate of 200 ppm. After drying, the leaf discs were infested with 5 L1 larvae. The samples were checked for mortality, feeding behavior, and growth regulation 3 days after treatment (DAT).

Heliothis virescens = Heliothis virescens (tobacco budworm) egg/artificial diet test; settings: 96 h, 200 ppm (concentration in well 18 ppm), eggs 0-24 h old on artificial diet, 4 days, egg mortality, larval mortality, growth regulation
Experimental: Eggs (0-24 h old) were placed in 24-well microtiter plate on artificial diet and treated with test solutions at an application rate of 200 ppm (concentration in well 18 ppm) by pipetting. After an incubation period of 4 days, samples were checked for egg mortality, larval mortality, and growth regulation.

Plutella xylostella = Plutella xylostella (diamond back moth) artificial diet test; settings: 144 h, 200 ppm (concentration in well 18 ppm), L2 larvae, 6 days, larval mortality, growth regulation
Experimental: 24-well microtiter plate (MTP) with artificial diet was treated with test solutions at an application rate of 200 ppm (concentration in well 18 ppm) by pipetting. After drying, the MTP's were infested with L2 larvae (7-12 per well). After an incubation period of 6 days, samples were checked for larval mortality and growth regulation.

Diabrotica balteata = Diabrotica balteata (corn root worm) artificial diet test; settings: 120 h, 200 ppm (concentration in well 18 ppm), L2 larvae, 5 days, larval mortality, growth regulation
Experimental: A 24-well microtiter plate (MTP) with artificial diet was treated with test solutions at an application rate of 200 ppm (concentration in well 18 ppm) by pipetting. After drying, the MTP's were infested with L2 larvae (6-10 per well). After an incubation period of 5 days, samples were checked for larval mortality and growth regulation.

Myzus persicae = Myzus persicae (green peach aphid), systemic test; settings: 144 h, roots of infested pea seedlings in test solution, 6 days, mortality, special effects on the plant
Excerpt: Myzus persicae (Green peach aphid), systemic test: Roots of pea seedlings, infested with an aphid population of mixed ages, are placed directly in the test solutions at an application rate of 12.5 ppm. 6 days after introduction, samples are checked for mortality and special effects on the plant. The following compounds gave at least 80% control of Myzus persicae: A3, B2, B3, B5, B6, B7, B8, B11, B12, C1, C2, C3,C4, C5, C6, C7, D1, E1, E2, G1, G3, G5, G6, H1, H5, H6, H9, H10, H11, H12, H13, H14, H18, H19, H20, H24, H25, and H26.

Thrips tabaci = Thrips tabaci (onion thrips) leaf disc spray test; settings: foliar, 168 h, 200 ppm spray on sunflower leaf discs, mixed ages, 7 days, mortality
Experimental: [The procedure below names another target; the source lists this target under the same test.] Sunflower leaf discs were placed on agar in a 24-well microtiter plate and sprayed with test solutions at an application rate of 200 ppm. After drying, the leaf discs were infested with an […] population of mixed ages. After an incubation period of 7 days, samples were checked for mortality.

Tetranychus urticae = Tetranychus urticae (two-spotted spider mite) leaf disc spray test; settings: foliar, 192 h, 200 ppm spray on bean leaf discs, mixed ages, 8 days, egg, larval and adult mortality
Excerpt: Bean leaf discs on agar in 24-well microtiter plates were sprayed with test solutions at an application rate of 200 ppm. After drying, the leaf discs are infested with mite populations of mixed ages. 8 days later, discs are checked for egg mortality, larval mortality, and adult mortality.

CCN1CC(NC(=O)c2ccc(C3=NOC(c4cc(Cl)cc(Cl)c4)(C(F)(F)F)C3)cc2C)CO1 (stereo not drawn) [Compound A3, 4-[5-(3,5-Dichloro-phenyl)-5-trifluoromethyl-4,5-dihydroisoxazol-3-yl]-N-(2-ethyl-isoxazolidin-4-yl)-2-methyl-benzamide]
≥ 80%: pest or weed control at 200 ppm (Spodoptera littoralis) | pest or weed control at 200 ppm (Heliothis virescens) | pest or weed control at 200 ppm (Plutella xylostella) | pest or weed control at 200 ppm (Diabrotica balteata) | pest or weed control at 12.5 ppm (Myzus persicae) | pest or weed control at 200 ppm (Thrips tabaci) | pest or weed control at 200 ppm (Tetranychus urticae)

Cc1cc(C2=NOC(c3cc(Cl)cc(Cl)c3)(C(F)(F)F)C2)ccc1C(=O)N[C@@H]1CON(C)C1=O (stereo partly drawn) [Compound B2, 4-[5-(3,5-Dichloro-phenyl)-5-trifluoromethyl-4,5-dihydro-isoxazol-3-yl]-2-methyl-N-((R)-2-methyl-3-oxo-isoxazolidin-4-yl)-benzamide]
≥ 80%: pest or weed control at 200 ppm (Spodoptera littoralis) | pest or weed control at 200 ppm (Heliothis virescens) | pest or weed control at 200 ppm (Plutella xylostella) | pest or weed control at 200 ppm (Diabrotica balteata) | pest or weed control at 12.5 ppm (Myzus persicae) | pest or weed control at 200 ppm (Thrips tabaci) | pest or weed control at 200 ppm (Tetranychus urticae)

C#CCN1OC[C@@H](NC(=O)c2ccc(C3=NOC(c4cc(Cl)cc(Cl)c4)(C(F)(F)F)C3)cc2C)C1=O (stereo partly drawn) [Compound B3, 4-[5-(3,5-Dichloro-phenyl)-5-trifluoromethyl-4,5-dihydro-isoxazol-3-yl]-2-methyl-N-((R)-2-propargyl-3-oxo-isoxazolidin-4-yl)-benzamide]
≥ 80%: pest or weed control at 200 ppm (Spodoptera littoralis) | pest or weed control at 200 ppm (Heliothis virescens) | pest or weed control at 200 ppm (Plutella xylostella) | pest or weed control at 200 ppm (Diabrotica balteata) | pest or weed control at 12.5 ppm (Myzus persicae) | pest or weed control at 200 ppm (Thrips tabaci) | pest or weed control at 200 ppm (Tetranychus urticae)

CCN1OC[C@@H](NC(=O)c2ccc(C3=NOC(c4cc(Cl)cc(Cl)c4)(C(F)(F)F)C3)cc2C)C1=O (stereo partly drawn) [Compound B6, 4-[5-(3,5-Dichloro-phenyl)-5-trifluoromethyl-4,5-dihydro-isoxazol-3-yl]-2-methyl-N-((R)-2-ethyl-3-oxo-isoxazolidin-4-yl)-benzamide]
≥ 80%: pest or weed control at 200 ppm (Spodoptera littoralis) | pest or weed control at 200 ppm (Heliothis virescens) | pest or weed control at 200 ppm (Plutella xylostella) | pest or weed control at 200 ppm (Diabrotica balteata) | pest or weed control at 12.5 ppm (Myzus persicae) | pest or weed control at 200 ppm (Thrips tabaci) | pest or weed control at 200 ppm (Tetranychus urticae)

COCCN1OC[C@@H](NC(=O)c2ccc(C3=NOC(c4cc(Cl)cc(Cl)c4)(C(F)(F)F)C3)cc2C)C1=O (stereo partly drawn) [Compound B7, 4-[5-(3,5-Dichloro-phenyl)-5-trifluoromethyl-4,5-dihydro-isoxazol-3-yl]-2-methyl-N-((R)-2-(2-methoxyethyl)-3-oxo-isoxazolidin-4-yl)-benzamide]
≥ 80%: pest or weed control at 200 ppm (Spodoptera littoralis) | pest or weed control at 200 ppm (Heliothis virescens) | pest or weed control at 200 ppm (Plutella xylostella) | pest or weed control at 200 ppm (Diabrotica balteata) | pest or weed control at 12.5 ppm (Myzus persicae) | pest or weed control at 200 ppm (Thrips tabaci) | pest or weed control at 200 ppm (Tetranychus urticae)

CCCCN1OC[C@@H](NC(=O)c2ccc(C3=NOC(c4cc(Cl)cc(Cl)c4)(C(F)(F)F)C3)cc2C)C1=O (stereo partly drawn) [Compound B8, 4-[5-(3,5-Dichloro-phenyl)-5-trifluoromethyl-4,5-dihydro-isoxazol-3-yl]-2-methyl-N-((R)-2-butyl-3-oxo-isoxazolidin-4-yl)-benzamide]
≥ 80%: pest or weed control at 200 ppm (Spodoptera littoralis) | pest or weed control at 200 ppm (Heliothis virescens) | pest or weed control at 200 ppm (Plutella xylostella) | pest or weed control at 200 ppm (Diabrotica balteata) | pest or weed control at 12.5 ppm (Myzus persicae) | pest or weed control at 200 ppm (Thrips tabaci) | pest or weed control at 200 ppm (Tetranychus urticae)

Cc1cc(C2=NOC(c3cc(Cl)cc(Cl)c3)(C(F)(F)F)C2)ccc1C(=O)N[C@@H]1CON(C2CCC2)C1=O (stereo partly drawn) [Compound B11, 4-[5-(3,5-Dichloro-phenyl)-5-trifluoromethyl-4,5-dihydro-isoxazol-3-yl]-2-methyl-N-((R)-2-(cyclobutyl)-3-oxo-isoxazolidin-4-yl)-benzamide]
≥ 80%: pest or weed control at 200 ppm (Spodoptera littoralis) | pest or weed control at 200 ppm (Plutella xylostella) | pest or weed control at 200 ppm (Diabrotica balteata) | pest or weed control at 12.5 ppm (Myzus persicae) | pest or weed control at 200 ppm (Thrips tabaci) | pest or weed control at 200 ppm (Tetranychus urticae)

Cc1cc(C2=NOC(c3cc(Cl)cc(Cl)c3)(C(F)(F)F)C2)ccc1C(=O)NCC1CCN(Cc2ccccc2)O1 (stereo not drawn) [Compound F1, N-(2-Benzyl-isoxazolidin-5-ylmethyl)-4-[5-(3,5-dichloro-phenyl)-5-trifluoromethyl-4,5-dihydro-isoxazol-3-yl]-2-methyl-benzamide]
≥ 80%: pest or weed control at 200 ppm (Spodoptera littoralis) | pest or weed control at 200 ppm (Heliothis virescens) | pest or weed control at 200 ppm (Plutella xylostella) | pest or weed control at 200 ppm (Diabrotica balteata) | pest or weed control at 200 ppm (Thrips tabaci) | pest or weed control at 200 ppm (Tetranychus urticae)

Cc1cc(C2=NOC(c3cc(Cl)cc(Cl)c3)(C(F)(F)F)C2)ccc1C(=O)NCC1CCN(C)O1 (stereo not drawn) [Compound F2, N-(2-methyl-isoxazolidin-5-ylmethyl)-4-[5-(3,5-dichloro-phenyl)-5-trifluoromethyl-4,5-dihydro-isoxazol-3-yl]-2-methyl-benzamide]
≥ 80%: pest or weed control at 200 ppm (Spodoptera littoralis) | pest or weed control at 200 ppm (Heliothis virescens) | pest or weed control at 200 ppm (Plutella xylostella) | pest or weed control at 200 ppm (Diabrotica balteata) | pest or weed control at 200 ppm (Thrips tabaci) | pest or weed control at 200 ppm (Tetranychus urticae)

CCN1OC(CNC(=O)c2ccc(C3=NOC(c4cc(Cl)cc(Cl)c4)(C(F)(F)F)C3)cc2C)CC1=O (stereo not drawn) [Compound F3, 4-[5-(3,5-Dichloro-phenyl)-5-trifluoromethyl-4,5-dihydro-isoxazol-3-yl]-2-methyl-N-[3-oxo-2-ethyl-isoxazolidin-5-ylmethyl]-benzamide]
≥ 80%: pest or weed control at 200 ppm (Spodoptera littoralis) | pest or weed control at 200 ppm (Heliothis virescens) | pest or weed control at 200 ppm (Plutella xylostella) | pest or weed control at 200 ppm (Diabrotica balteata) | pest or weed control at 200 ppm (Thrips tabaci) | pest or weed control at 200 ppm (Tetranychus urticae)

Cc1cc(C2=NOC(c3cc(Cl)cc(Cl)c3)(C(F)(F)F)C2)ccc1C(=O)NCC1CC(=O)N(CC(F)(F)F)O1 (stereo not drawn) [Compound F4, 4-[5-(3,5-Dichloro-phenyl)-5-trifluoromethyl-4,5-dihydro-isoxazol-3-yl]-2-methyl-N-[3-oxo-2-(1,1,1-trifluoroethyl)-isoxazolidin-5-ylmethyl]-benzamide]
≥ 80%: pest or weed control at 200 ppm (Spodoptera littoralis) | pest or weed control at 200 ppm (Heliothis virescens) | pest or weed control at 200 ppm (Plutella xylostella) | pest or weed control at 200 ppm (Diabrotica balteata) | pest or weed control at 200 ppm (Thrips tabaci) | pest or weed control at 200 ppm (Tetranychus urticae)

Cc1cc(C2=NOC(c3cc(Cl)cc(Cl)c3)(C(F)(F)F)C2)ccc1C(=O)NCC1CO[S+]([O-])O1 (stereo not drawn) [Compound F5, 4-[5-(3,5-dichlorophenyl)-5-(trifluoromethyl)-4H-isoxazol-3-yl]-2-methyl-N-[(2-oxido-1,3,2-dioxathiolan-2-ium-4-yl)methyl]benzamide]
≥ 80%: pest or weed control at 200 ppm (Spodoptera littoralis) | pest or weed control at 200 ppm (Heliothis virescens) | pest or weed control at 200 ppm (Plutella xylostella) | pest or weed control at 200 ppm (Diabrotica balteata) | pest or weed control at 200 ppm (Thrips tabaci) | pest or weed control at 200 ppm (Tetranychus urticae)
